# Values joined by “and” are separate entries in the source; they are usually repeats but may differ in a detail not shown here. Equal entries are not always repeated. “Also recorded” adds a separate entry of the source. No end group written: not given here.
# Assays:
# protein kinase A = conditions: cited from earlier work
# citron kinase = citron kinase (Homo sapiens, UniProt O14578); conditions: cited from earlier work
# [1] = target: T1, ROCK1 catalytic domain (MBP-ROCK1) (Homo sapiens, UniProt Q13464); assay: ROCK1 autophosphorylation inhibition by phage-displayed peptides; assay type: biochemical; conditions: for ROCK autophosphorylation inhibition: high ATP levels (1 mM)
# T1 construct: made in house
# T1 sequence (Q13464 76-338 limits assumed, species assumed): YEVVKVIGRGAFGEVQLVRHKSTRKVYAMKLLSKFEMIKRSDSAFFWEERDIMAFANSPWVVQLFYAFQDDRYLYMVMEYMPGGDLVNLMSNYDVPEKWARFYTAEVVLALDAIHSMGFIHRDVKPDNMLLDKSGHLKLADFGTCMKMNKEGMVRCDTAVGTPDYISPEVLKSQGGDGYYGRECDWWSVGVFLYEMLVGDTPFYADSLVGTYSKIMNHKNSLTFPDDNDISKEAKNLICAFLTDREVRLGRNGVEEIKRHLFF
# Description: The maltose binding protein fusion protein linked to the ROCK1 kinase domain (MBP-ROCK1) was incubated with a Ph.D-12 phage display library of 12 amino acids in length (New England Biolabs, Inc).
# The ROCK1 catalytic domain (MBP-ROCK1) was linked to a maltose binding protein fusion protein and was incubated with a Ph.D-12 phage display library of 12 amino acids in length (New England Biolabs, Inc.).
# cellular cytoskeleton = assay: Cellular cytoskeleton disruption in cell culture; assay type: cell-based; conditions: added to cell culture medium
# Description: Peptides25 was synthesized and one of which contained a fusion of the N′ end terminal TAT sequence (TATpeptide25), which allows peptides and proteins easy entry into cells.
# Peptides25 was synthesized and an additional synthesis which contained a fusion of the N′ end terminal TAT sequence (TATpeptide25), which allows peptides and proteins easy entry into cells. […] The TAT polypeptide sequence alone was ineffective. At the cellular level, the cell cytoskeleton changed after TATpeptide25 was introduced into cell culture medium as expected, since ROCK is a mediator for cell morphology and cell migration.
# [2] = tested on: cell movement into the wound (ROCK1); assay: Wound healing scratch test; assay type: cell-based; conditions: for percent of healing (mean): standard scratch test, at least N=5 trials, control mean 17.4
# Description: Peptide25 change in perimeter (mean: 15%; p-value: 0.03) was evaluated for 4 separate experiments with each having 3 trials for a total of 12 measurements. These experiments included two controls, one with no treatment the other with only the TAT peptide.
# Peptide fragments were chosen based on the information from analysis of critical residues and the candidate sequences Pep25-A AAYSPST (Pep25-A; SEQ ID NO: 62) and ERTYSPS (Pep25-P2; SEQ ID NO: 69) were evaluated again using a wound healing scratch test.
# ROCK1 = ROCK1 (Homo sapiens, UniProt Q13464); assay: Luciferase assay of peptide25 fragments and alanine substitutions; assay type: biochemical
# ROCK1, sequence (Q13464 whole entry, species assumed, the tested form may be a part): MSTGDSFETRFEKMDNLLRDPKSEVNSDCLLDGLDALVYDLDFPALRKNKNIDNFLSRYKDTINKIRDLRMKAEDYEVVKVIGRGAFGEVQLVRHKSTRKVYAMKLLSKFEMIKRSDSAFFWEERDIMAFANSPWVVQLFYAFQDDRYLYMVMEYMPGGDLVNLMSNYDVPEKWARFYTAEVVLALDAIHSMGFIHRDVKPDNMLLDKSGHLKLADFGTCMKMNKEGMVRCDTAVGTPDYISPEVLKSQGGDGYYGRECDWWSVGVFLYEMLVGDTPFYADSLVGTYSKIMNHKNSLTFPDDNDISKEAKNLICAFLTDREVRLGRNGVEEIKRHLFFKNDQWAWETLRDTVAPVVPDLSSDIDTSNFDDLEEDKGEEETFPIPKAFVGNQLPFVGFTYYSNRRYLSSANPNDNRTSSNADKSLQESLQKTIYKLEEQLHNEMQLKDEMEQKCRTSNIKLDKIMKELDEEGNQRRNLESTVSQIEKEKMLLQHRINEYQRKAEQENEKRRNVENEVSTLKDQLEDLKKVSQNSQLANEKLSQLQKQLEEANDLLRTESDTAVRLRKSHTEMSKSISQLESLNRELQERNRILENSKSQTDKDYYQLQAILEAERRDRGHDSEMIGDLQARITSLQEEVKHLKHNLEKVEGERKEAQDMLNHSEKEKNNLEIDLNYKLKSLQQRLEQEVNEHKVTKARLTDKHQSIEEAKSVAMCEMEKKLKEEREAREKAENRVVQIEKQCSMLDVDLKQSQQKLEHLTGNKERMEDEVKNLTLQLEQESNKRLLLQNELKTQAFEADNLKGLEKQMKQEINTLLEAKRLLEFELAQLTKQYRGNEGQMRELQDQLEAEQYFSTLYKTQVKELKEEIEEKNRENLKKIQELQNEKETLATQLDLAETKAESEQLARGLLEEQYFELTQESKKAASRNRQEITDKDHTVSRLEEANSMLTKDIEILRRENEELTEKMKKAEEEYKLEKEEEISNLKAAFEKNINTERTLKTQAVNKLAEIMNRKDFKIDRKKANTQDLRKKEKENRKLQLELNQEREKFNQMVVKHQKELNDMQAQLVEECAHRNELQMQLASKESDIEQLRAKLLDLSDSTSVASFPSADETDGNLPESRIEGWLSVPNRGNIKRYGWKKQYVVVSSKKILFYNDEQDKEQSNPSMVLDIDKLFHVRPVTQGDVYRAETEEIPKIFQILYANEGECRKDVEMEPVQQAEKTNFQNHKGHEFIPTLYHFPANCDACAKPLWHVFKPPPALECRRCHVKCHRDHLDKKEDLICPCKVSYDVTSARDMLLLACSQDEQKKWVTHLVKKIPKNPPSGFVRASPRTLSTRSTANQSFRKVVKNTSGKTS
# Description: (Right panel) Likewise the alanine substitution at positions Y4, S5, P6, and S7 all reduced the effectiveness of peptide25.
# The peptide25 was divided into fragments; ERTYS (F1; SEQ ID NO: 3), YSPST (F2; SEQ ID NO: 4), and STAVRS (F3; SEQ ID NO: 2). […] Additionally, an alanine substitution was performed at each position to look for amino acids that putatively might be important to binding and when replaced reduced the response.
# ROCK = ROCK and S6 substrate reaction followed by mass spectrum; assay type: biochemical
# ROCK, sequence (Q13464 6-415 limits assumed): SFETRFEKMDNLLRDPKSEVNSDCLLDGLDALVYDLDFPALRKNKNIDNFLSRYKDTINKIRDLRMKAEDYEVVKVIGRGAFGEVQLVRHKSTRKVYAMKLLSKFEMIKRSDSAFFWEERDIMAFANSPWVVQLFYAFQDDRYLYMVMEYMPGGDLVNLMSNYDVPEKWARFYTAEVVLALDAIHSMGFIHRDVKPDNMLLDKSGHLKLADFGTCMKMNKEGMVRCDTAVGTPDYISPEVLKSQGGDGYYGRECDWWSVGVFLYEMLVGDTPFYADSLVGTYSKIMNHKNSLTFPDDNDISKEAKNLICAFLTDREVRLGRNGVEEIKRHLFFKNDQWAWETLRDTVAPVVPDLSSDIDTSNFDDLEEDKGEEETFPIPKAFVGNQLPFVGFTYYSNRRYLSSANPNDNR
# Description: FIG. 10—(Left panel) Mass spectrum, two peaks labeled as S6 and pS6 were non-phosphorylated and phosphorylated S6 from ROCK reaction mixture. Following the decreasing concentration of Pep25-P2, the phosphorylated peak pS6 was increasing. (Right panel) S6 conversion ratios were calculated by phosphorylated peak area divided by the sum of phosphorylated and non-phosphorylated peaks' areas.
# To determine its inhibition at substrate conversion, different concentrations of Pep25-P2 was added to a ROCK and S6 (substrate) reaction mixture. In MS data, peaks representing phosphorylated and non-phosphorylated S6 substrates were then identified (FIG. 10).
# [3] = tested on: aortic rings contracted with U46619; assay: Aortic ring contractility assay (ring bath, U46619); design: species or system mice
# Description: Channel evaluation of concentrations 150, 200, 300, 100, 250, and 50 μM. Channel 7 (last graph) is the control.
# Aortas were collected from adult mice, removed the surrounding fat tissues and installed the freshly cut rings in 2 mm sections on the isometric transducer apparatus. After adjusting the rings tension through series of contraction and relaxation, the rings were constricted 3 times with the 40 mM KCl to achieve consistent contraction. In order to find the effective contraction inducing dose of U46619, following the relaxation of the rings after the KCl contraction, the rings were subjected to contraction by adding different doses of U46619, a vasoconstrictor. 1-3 nM U46619 was chosen do the further experiments. […] Second dose of U46619 was applied to contract the ring. The affection was measured by the difference of the highest response of U46619 with and without Pep25-P2. […] One ring had 26% decreasing, the other had 40% decreasing.
# ROCK2 = ROCK2 (Homo sapiens, UniProt O75116); assay: Surface Plasmon Resonance binding (BiaCore); conditions: SPR, data not shown
# Description: FIG. 6—Determination of binding affinity of TATpeptide25. Proteins MBP, ROCK2, ROCK1-553. ROCK1-415 Were immobilized on CM-5 chip and peptide binding affinity was monitored by BiaCore system. Peptide TAT was used as control to monitored non-specific binding.
# Surface Plasmon Resonance (SPR) was used to measure peptide25 binding efficiency with ROCK.
# citron kinase, sequence (O14578 whole entry, the tested form may be a part): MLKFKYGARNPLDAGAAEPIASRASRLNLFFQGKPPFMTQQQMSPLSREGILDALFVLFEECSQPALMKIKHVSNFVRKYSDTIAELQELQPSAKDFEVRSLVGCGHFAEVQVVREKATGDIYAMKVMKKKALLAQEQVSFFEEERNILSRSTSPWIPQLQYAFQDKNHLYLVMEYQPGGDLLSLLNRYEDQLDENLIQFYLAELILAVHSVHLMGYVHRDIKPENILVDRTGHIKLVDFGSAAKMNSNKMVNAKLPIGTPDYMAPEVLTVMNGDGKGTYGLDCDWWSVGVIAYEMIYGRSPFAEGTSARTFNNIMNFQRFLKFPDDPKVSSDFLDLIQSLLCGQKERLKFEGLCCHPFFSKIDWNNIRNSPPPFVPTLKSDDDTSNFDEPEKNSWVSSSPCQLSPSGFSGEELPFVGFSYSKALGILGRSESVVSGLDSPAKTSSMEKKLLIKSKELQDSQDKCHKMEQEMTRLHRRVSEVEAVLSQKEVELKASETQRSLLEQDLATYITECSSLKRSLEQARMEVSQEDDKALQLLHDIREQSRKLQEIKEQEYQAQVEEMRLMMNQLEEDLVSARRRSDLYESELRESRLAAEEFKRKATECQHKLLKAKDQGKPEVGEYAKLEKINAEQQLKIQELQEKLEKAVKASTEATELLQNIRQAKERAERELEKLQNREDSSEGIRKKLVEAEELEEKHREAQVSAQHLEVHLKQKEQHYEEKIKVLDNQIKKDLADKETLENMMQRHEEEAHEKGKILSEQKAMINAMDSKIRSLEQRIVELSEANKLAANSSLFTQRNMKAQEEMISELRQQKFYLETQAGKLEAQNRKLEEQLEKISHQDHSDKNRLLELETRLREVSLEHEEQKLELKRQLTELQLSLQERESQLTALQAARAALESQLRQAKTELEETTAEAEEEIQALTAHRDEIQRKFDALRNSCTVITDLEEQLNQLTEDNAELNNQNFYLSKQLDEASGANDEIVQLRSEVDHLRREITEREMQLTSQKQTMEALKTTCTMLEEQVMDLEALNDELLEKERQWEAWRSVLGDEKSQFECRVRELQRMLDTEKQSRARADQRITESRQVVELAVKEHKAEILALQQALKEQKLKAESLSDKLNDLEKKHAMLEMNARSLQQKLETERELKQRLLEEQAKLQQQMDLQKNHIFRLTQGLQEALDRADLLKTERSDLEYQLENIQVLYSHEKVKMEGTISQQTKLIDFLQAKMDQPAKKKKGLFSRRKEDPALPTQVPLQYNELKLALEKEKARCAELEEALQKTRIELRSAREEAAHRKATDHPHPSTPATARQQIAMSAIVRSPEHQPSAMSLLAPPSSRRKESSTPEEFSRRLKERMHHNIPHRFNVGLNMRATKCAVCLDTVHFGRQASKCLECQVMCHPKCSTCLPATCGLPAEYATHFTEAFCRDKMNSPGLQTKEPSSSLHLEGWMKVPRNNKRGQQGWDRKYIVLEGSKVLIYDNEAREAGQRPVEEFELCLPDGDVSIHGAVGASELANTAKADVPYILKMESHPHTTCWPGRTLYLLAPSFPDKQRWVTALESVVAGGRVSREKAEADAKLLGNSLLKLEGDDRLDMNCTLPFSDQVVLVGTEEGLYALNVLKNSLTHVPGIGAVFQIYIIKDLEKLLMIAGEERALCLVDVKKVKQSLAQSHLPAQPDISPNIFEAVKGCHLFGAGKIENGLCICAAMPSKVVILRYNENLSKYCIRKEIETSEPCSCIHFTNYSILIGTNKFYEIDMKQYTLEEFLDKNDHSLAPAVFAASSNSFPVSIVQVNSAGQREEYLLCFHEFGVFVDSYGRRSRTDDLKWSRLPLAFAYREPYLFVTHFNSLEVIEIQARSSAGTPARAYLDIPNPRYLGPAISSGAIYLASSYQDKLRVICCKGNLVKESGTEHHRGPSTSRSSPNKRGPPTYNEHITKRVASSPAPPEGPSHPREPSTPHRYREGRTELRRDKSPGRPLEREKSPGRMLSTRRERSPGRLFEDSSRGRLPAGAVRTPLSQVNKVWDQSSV
molecule,measurement,setting,value
O=S(=O)(c1cccc2cnccc12)N1CCCNCC1 [Fusadil],inhibition of protein kinase A,protein kinase A,also inhibit
same,inhibition of citron kinase,citron kinase,also inhibit
C[C@@H](N)[C@H]1CC[C@H](C(=O)Nc2ccncc2)CC1 [Y27632],ROCK autophosphorylation inhibition,[1],blocked Y27632 inhibitory activity
same,effect on cellular cytoskeleton,cellular cytoskeleton,melted cytoskeleton
same,inhibition of protein kinase A,protein kinase A,also inhibit
same,inhibition of citron kinase,citron kinase,also inhibit
AAYSPST [Pep25-A],percent of healing (mean),[2],15.1%
ERTYS [F1],inhibitory activity measured by luciferase assay,ROCK1,retained its activity
ERTYSPS [Pep25-P2],effect on cellular cytoskeleton,cellular cytoskeleton,disrupted actin exoskeleton formation
same,wound healing / ROCK1 inhibition in scratch test,[2],inhibited ROCK1 more effectively; also recorded: inhibited wound healing
same,effective dose from dose curve,[2]; scratch test dose response,40 µM
same,percent of healing (mean),[2],13.1%
same,phosphorylation of substrate S6 by ROCK (conversion ratio),ROCK; different concentrations of peptide in ROCK and S6 reaction mixture,repressed the phosphorylation of substrate S6 by ROCK
same,phosphorylation of the peptide by ROCK,ROCK; mass spectrum,couldn't be phosphorylated by ROCK
same,suppression of U46619 contractility,"[3]; 50-300 μM, preincubation 20 min",showed suppression of contractility of U46619; also recorded: dose dependant response
same,decrease of highest U46619 contraction response,"[3]; 200 and 300 μM preincubated 10 min, one ring each, 1-3 nM U46619",26% and 40%
ERTYSPSTAVRS [peptide25],ROCK autophosphorylation inhibition,[1],blocked ROCK autophosphorylation
same,ROCK1 activity,[1]; in the presence of mM ATP,blocked ROCK1 activity
same,autophosphorylated inhibition,[1]; phage display candidates,exhibited autophosphorylated inhibition
same,change in perimeter at the intersection of the scratch (mean),"[2]; 4 separate experiments, 3 trials each, 12 measurements, p-value 0.03",15%
same,binding with ROCK1 as compared to ROCK2,ROCK2,demonstrated some difference
STAVRS [F3],inhibitory activity measured by luciferase assay,ROCK1,lost effectively; also recorded: did not confer an inhibitory response
"TATpeptide25: peptide25 with a fusion of the N′ end terminal TAT sequence (ERTYSPSTAVRS; also: N-terminal TAT sequence fusion, not in given chain)",effect on cellular cytoskeleton,cellular cytoskeleton,disassociated or “melted” cellular cytoskeleton
same,effect on cellular cytoskeleton,cellular cytoskeleton; listed as TAT-end-labeled peptide25,melted cytoskeleton
YSPST [F2],inhibitory activity measured by luciferase assay,ROCK1,retained its activity

# Source: patent publication US10335449B2, “Rho associated kinase (ROCK) inhibitors and their use in treating disease” (UNIVERSITY OF HOUSTON SYSTEM, priority 2014, dated 2019)
